{"source": "patent US11684614B2", "about": "“Formulations of hydroxypyridonate actinide/lanthanide decorporation agents” (priority 2017, dated 2023)", "assay": "3,4,3-LI(1,2-HOPO)-excipient compatibility study (visual observation, HPLC purity and impurities on storage)", "type": "physicochemical", "settings": "for 3L1O Purity / Total Impurities: n = 1", "procedure": "The objective of the analytical study described in this report was to evaluate the interactions between 3,4,3-L1(1,2-HOPO) and selected pharmaceutical excipients under 25° C./60% RH and 40° C./75% RH conditions over eight weeks. Physical appearance and potency of the different samples were assessed at T=0, 2, 4, and 8 weeks through visual observations and high performance liquid chromatography (HPLC) analysis.\nThe stability of 3,4,3-L1(1,2-HOPO) was tested according to the conditions listed below in TABLE 1.1. A11 test samples were stored throughout the study in 40 mL clear USP Type 1 glass vials (28 mm OD×95 mm height; 24 mm screw cap), wrapped in aluminum foil.\n• Test Samples: Each test mixture was prepared by weighing the desired quantity of 3,4,3-L1(1,2-HOPO) and excipient (both screened through sieve #40) into vials. Both ingredients were first mixed using a clean glass rod and then vortexed. At each time interval, one vial was withdrawn from each drug-excipient series along with the corresponding placebo preparation and tested as described below.\nb. Sample Characterization • Visual Observation: For each sample solution, visual observation consisted in recording color and physical form.\nc. Chromatographic Assay and Purity Assessment • Standard Stock Solutions: For each standard stock solutions, the test article was weighed (200 mg) and dissolved by sonication into 30 mL of diluent (water:acetonitrile=90%:10%). After equilibration at room temperature, the volume of the standard solution was adjusted to 50 mL. Standard stock solutions were prepared in duplicates, working standard solutions were prepared by dilution of each stock with the diluent to the desired concentrations. • Calibration Standards: With each experiment, 5 calibration standard solutions at different concentrations were prepared from stock solutions using the diluent. Concentrations of the calibration standards were between 1.6 and 2.4 mg/mL. […] The vials were then mechanically shaken for 15 minutes, followed by centrifugation of the sample solutions (10,000 rpm, 10 min), and the supernatants were used for the assay. • Placebo Preparation: 25 mL of diluent was added to each of the placebo vial. The vials were then mechanically shaken for 15 minutes, followed by centrifugation of the sample solutions (10,000 rpm, 10 min), and the supernatants were used for the assay. Analytical Method: Instrument: Waters Alliance 2695 liquid chromatography system Column: Agilent, Eclipse XDB-C18, 4.6×150 mm, 5 μm. Mobile Phase A: 0.05% formic acid in 95% H2O: 5% ACN Mobile Phase B: 0.05% formic acid in acetonitrile (ACN)\nColumn Temperature: 25° C. Flow Rate: 1.0 mL/min. Injection Volume: 10 μL Detection: 250 nm Run Time: 50 min Diluent: 9:1 H2O:ACN Analysis Sequence:\n• Suitability Requirements: There should be no interference from the diluent/blank at the retention times of 3,4,3-L1(1,2-HOPO) peaks. The relative standard deviation (% RSD) for five replicate system suitability injections should be below 2.0%. The response factor of the second standard should be within 95-105%. The correlation coefficient (R2) of the system linearity standards should be higher than 0.990. 5. Results", "data": [{"smiles": "O=C(NCCCN(CCCCN(CCCNC(=O)c1cccc(=O)n1O)C(=O)c1cccc(=O)n1O)C(=O)c1cccc(=O)n1O)c1cccc(=O)n1O", "note": "[3,4,3-L1(1,2-HOPO)]", "values": [{"measurement": "Stability of 3,4,3-L1(1,2-HOPO)", "setting": "25° C./60% RH and 40° C./75% RH, over 8 weeks", "result": "stable over 8 weeks"}, {"measurement": "Unknown Impurity RRT 0.24", "setting": "25° C./60% RH, 2 Weeks", "result": 0.03, "unit": "% w/w"}, {"measurement": "Unknown Impurity RRT 0.58", "setting": "25° C./60% RH, 2 Weeks", "result": 0.05, "unit": "% w/w"}, {"measurement": "Unknown Impurity RRT 0.59", "setting": "25° C./60% RH, 2 Weeks", "result": 0.05, "unit": "% w/w"}, {"measurement": "Unknown Impurity RRT 0.62", "setting": "25° C./60% RH, 2 Weeks", "result": 0.05, "unit": "% w/w"}, {"measurement": "Unknown Impurity RRT 0.87", "setting": "25° C./60% RH, 2 Weeks", "result": 0.12, "unit": "% w/w"}, {"measurement": "Unknown Impurity RRT 0.89", "setting": "25° C./60% RH, 2 Weeks", "result": 0.03, "unit": "% w/w"}, {"measurement": "Unknown Impurity RRT 1.02", "setting": "25° C./60% RH, 2 Weeks", "result": 0.08, "unit": "% w/w"}, {"measurement": "Unknown Impurity RRT 1.11", "setting": "25° C./60% RH, 2 Weeks", "result": 0.05, "unit": "% w/w"}, {"measurement": "Unknown Impurity RRT 1.27", "setting": "25° C./60% RH, 2 Weeks", "result": 0.36, "unit": "% w/w"}, {"measurement": "Unknown Impurity RRT 1.3", "setting": "25° C./60% RH, 2 Weeks", "result": 0.22, "unit": "% w/w"}, {"measurement": "Unknown Impurity RRT 1.39", "setting": "25° C./60% RH, 2 Weeks", "result": 0.07, "unit": "% w/w"}, {"measurement": "Unknown Impurity RRT 1.41", "setting": "25° C./60% RH, 2 Weeks", "result": 0.03, "unit": "% w/w"}, {"measurement": "Unknown Impurity RRT 1.46", "setting": "25° C./60% RH, 2 Weeks", "result": 0.08, "unit": "% w/w"}, {"measurement": "Unknown Impurity RRT 2.31", "setting": "25° C./60% RH, 2 Weeks", "result": 0.05, "unit": "% w/w"}, {"measurement": "Unknown Impurity RRT 2.6", "setting": "25° C./60% RH, 2 Weeks", "result": 0.04, "unit": "% w/w"}, {"measurement": "Unknown Impurity RRT 2.8", "setting": "25° C./60% RH, 2 Weeks", "result": 0.03, "unit": "% w/w"}, {"measurement": "3L1O Purity", "setting": "25° C./60% RH, 2 Weeks", "result": 98.67, "unit": "% Area"}, {"measurement": "Total Impurities", "setting": "25° C./60% RH, 2 Weeks", "result": 1.33, "unit": "% Area"}, {"measurement": "Unknown Impurity RRT 0.24", "setting": "25° C./60% RH, 4 weeks", "result": 0.03, "unit": "% w/w"}, {"measurement": "Unknown Impurity RRT 0.58", "setting": "25° C./60% RH, 4 weeks", "result": 0.07, "unit": "% w/w"}, {"measurement": "Unknown Impurity RRT 0.6", "setting": "25° C./60% RH, 4 weeks", "result": 0.05, "unit": "% w/w"}, {"measurement": "Unknown Impurity RRT 0.62", "setting": "25° C./60% RH, 4 weeks", "result": 0.05, "unit": "% w/w"}, {"measurement": "Unknown Impurity RRT 0.87", "setting": "25° C./60% RH, 4 weeks", "result": 0.14, "unit": "% w/w"}, {"measurement": "Unknown Impurity RRT 0.89", "setting": "25° C./60% RH, 4 weeks", "result": 0.02, "unit": "% w/w"}, {"measurement": "Unknown Impurity RRT 1.03", "setting": "25° C./60% RH, 4 weeks", "result": 0.04, "unit": "% w/w"}, {"measurement": "Unknown Impurity RRT 1.11", "setting": "25° C./60% RH, 4 weeks", "result": 0.05, "unit": "% w/w"}, {"measurement": "Unknown Impurity RRT 1.27", "setting": "25° C./60% RH, 4 weeks", "result": 0.28, "unit": "% w/w"}, {"measurement": "Unknown Impurity RRT 1.3", "setting": "25° C./60% RH, 4 weeks", "result": 0.26, "unit": "% w/w"}, {"measurement": "Unknown Impurity RRT 1.39", "setting": "25° C./60% RH, 4 weeks", "result": 0.07, "unit": "% w/w"}, {"measurement": "Unknown Impurity RRT 1.41", "setting": "25° C./60% RH, 4 weeks", "result": 0.01, "unit": "% w/w"}, {"measurement": "Unknown Impurity RRT 1.46", "setting": "25° C./60% RH, 4 weeks", "result": 0.09, "unit": "% w/w"}, {"measurement": "Unknown Impurity RRT 1.72", "setting": "25° C./60% RH, 4 weeks", "result": 0.05, "unit": "% w/w"}, {"measurement": "Unknown Impurity RRT 2.3", "setting": "25° C./60% RH, 4 weeks", "result": 0.05, "unit": "% w/w"}, {"measurement": "Unknown Impurity RRT 2.59", "setting": "25° C./60% RH, 4 weeks", "result": 0.04, "unit": "% w/w"}, {"measurement": "Unknown Impurity RRT 2.79", "setting": "25° C./60% RH, 4 weeks", "result": 0.03, "unit": "% w/w"}, {"measurement": "3L1O Purity", "setting": "25° C./60% RH, 4 weeks", "result": 98.66, "unit": "% Area"}, {"measurement": "Total Impurities", "setting": "25° C./60% RH, 4 weeks", "result": 1.34, "unit": "% Area"}, {"measurement": "Unknown Impurity RRT 0.24", "setting": "25° C./60% RH, 8 Weeks", "result": 0.04, "unit": "% w/w"}, {"measurement": "Unknown Impurity RRT 0.58", "setting": "25° C./60% RH, 8 Weeks", "result": 0.07, "unit": "% w/w"}, {"measurement": "Unknown Impurity RRT 0.59", "setting": "25° C./60% RH, 8 Weeks", "result": 0.05, "unit": "% w/w"}, {"measurement": "Unknown Impurity RRT 0.62", "setting": "25° C./60% RH, 8 Weeks", "result": 0.06, "unit": "% w/w"}, {"measurement": "Unknown Impurity RRT 0.87", "setting": "25° C./60% RH, 8 Weeks", "result": 0.15, "unit": "% w/w"}, {"measurement": "Unknown Impurity RRT 0.89", "setting": "25° C./60% RH, 8 Weeks", "result": 0.02, "unit": "% w/w"}, {"measurement": "Unknown Impurity RRT 1.03", "setting": "25° C./60% RH, 8 Weeks", "result": 0.08, "unit": "% w/w"}, {"measurement": "Unknown Impurity RRT 1.11", "setting": "25° C./60% RH, 8 Weeks", "result": 0.05, "unit": "% w/w"}, {"measurement": "Unknown Impurity RRT 1.27", "setting": "25° C./60% RH, 8 Weeks", "result": 0.41, "unit": "% w/w"}, {"measurement": "Unknown Impurity RRT 1.3", "setting": "25° C./60% RH, 8 Weeks", "result": 0.23, "unit": "% w/w"}, {"measurement": "Unknown Impurity RRT 1.39", "setting": "25° C./60% RH, 8 Weeks", "result": 0.07, "unit": "% w/w"}, {"measurement": "Unknown Impurity RRT 1.41", "setting": "25° C./60% RH, 8 Weeks", "result": 0.01, "unit": "% w/w"}, {"measurement": "Unknown Impurity RRT 1.46", "setting": "25° C./60% RH, 8 Weeks", "result": 0.09, "unit": "% w/w"}, {"measurement": "Unknown Impurity RRT 1.73", "setting": "25° C./60% RH, 8 Weeks", "result": 0.06, "unit": "% w/w"}, {"measurement": "Unknown Impurity RRT 2.31", "setting": "25° C./60% RH, 8 Weeks", "result": 0.07, "unit": "% w/w"}, {"measurement": "Unknown Impurity RRT 2.6", "setting": "25° C./60% RH, 8 Weeks", "result": 0.05, "unit": "% w/w"}, {"measurement": "Unknown Impurity RRT 2.8", "setting": "25° C./60% RH, 8 Weeks", "result": 0.03, "unit": "% w/w"}, {"measurement": "3L1O Purity", "setting": "25° C./60% RH, 8 Weeks", "result": 98.47, "unit": "% Area"}, {"measurement": "Total Impurities", "setting": "25° C./60% RH, 8 Weeks", "result": 1.53, "unit": "% Area"}, {"measurement": "Unknown Impurity RRT 0.24", "setting": "40° C./75% RH, 2 Weeks", "result": 0.06, "unit": "% w/w"}, {"measurement": "Unknown Impurity RRT 0.58", "setting": "40° C./75% RH, 2 Weeks", "result": 0.07, "unit": "% w/w"}, {"measurement": "Unknown Impurity RRT 0.59", "setting": "40° C./75% RH, 2 Weeks", "result": 0.06, "unit": "% w/w"}, {"measurement": "Unknown Impurity RRT 0.62", "setting": "40° C./75% RH, 2 Weeks", "result": 0.06, "unit": "% w/w"}, {"measurement": "Unknown Impurity RRT 0.81", "setting": "40° C./75% RH, 2 Weeks", "result": 0.02, "unit": "% w/w"}, {"measurement": "Unknown Impurity RRT 0.87", "setting": "40° C./75% RH, 2 Weeks", "result": 0.13, "unit": "% w/w"}, {"measurement": "Unknown Impurity RRT 0.89", "setting": "40° C./75% RH, 2 Weeks", "result": 0.07, "unit": "% w/w"}, {"measurement": "Unknown Impurity RRT 1.02", "setting": "40° C./75% RH, 2 Weeks", "result": 0.07, "unit": "% w/w"}, {"measurement": "Unknown Impurity RRT 1.11", "setting": "40° C./75% RH, 2 Weeks", "result": 0.06, "unit": "% w/w"}]}]}
